“Also recorded” adds a separate entry of the source.
How the values were obtained:
BD140C cells [1] = assay: Visualization of cholesterol levels by filipin III binding; assay type: cell-based; conditions: 4 h
Protocol: (§1) The cells were seeded in 96-well ibiTreat μ-Plates and allowed to adhere for 48 h prior to the start of each experiment. Cholesterol was detected in fixed cells by incubating with 100 μg/ml filipin III at 37 C for 2 h. […] Images were captured using either a 4× or a 60× objective. Cholesterol esterification was visualized by culturing the cells with 1 μM NBD-cholesterol for 2 h following incubation with the indicated compounds. […] Images were captured using either a 20× or a 60× objective.
(§2) The medium was removed and immediately replaced with 100 μl of 4% paraformaldehyde and the cells were fixed at room temperature for 20 min. The cells were washed twice with 200 μl PBS. […] The fixed cells were incubated with filipin III at 37 C in the dark for 2 h.

H295R cells [2] = assay: as above; assay type: cell-based; conditions: for cholesterol level / accumulation (filipin III binding), compound alone: serum-containing medium
Protocol: as §1, §2

BD140C cells [3] = assay: Cellular ATP level (CellTiter-Glo); assay type: cell-based
Protocol: The ATP levels of cells were measured by lysis in CellTiter-Glo reagent (Promega), and measurement of the luminescence.
After 48 h, 20-80 μl of medium was removed from each well and replaced with 20 μl of each compound diluted to 6× of the final concentration in the culture medium to produce a final volume of 120 μl. The cells were incubated at 37 C in 5% CO2 atmosphere for a time ranging from 15 min to 24 h. The medium was removed and immediately replaced with 50 μl of CellTiter-Glo luminescence cell viability assay reagent (Promega). The cells were lysed by agitation at room temperature for 20 min in the dark. The luminescence was measured using a SpectraMax M5 microplate reader (Molecular Devices) with a 0.5 s acquisition time. The luminescence (RLU) values for control cells ranged from 5000 to 20000 RLU in all experiments, and were scaled by a factor of 0.001 to plot all graphs.

BD140C cells [4] = assay: Caspase 3/7 activity (Apo-ONE); assay type: cell-based
Protocol: (§3) The samples were incubated for 18 h at room temperature in the dark. The fluorescence was measured using a SpectraMax M5 microplate reader with a 0.5 s acquisition time.

H295R cells [5] = assay: Caspase 3/7 activity (Apo-ONE); assay type: cell-based; conditions: for caspase 3/7 activity, compound alone: serum-containing medium
Protocol: as §3

BD140C cells [6] = assay: Visualization of NBD-cholesterol esterification; assay type: cell-based; conditions: compound 2 h then 2 h with NBD-cholesterol
Protocol: (§4) The cells were seeded in 96-well ibiTreat μ-Plates and allowed to adhere for 48 h prior to the start of each experiment. Cholesterol was detected in fixed cells by incubating with 100 μg/ml filipin III at 37 C for 2 h. The bound filipin III was imaged by fluorescence microscopy using 377/11 nm excitation and 447/60 nm emission wavelengths. Images were captured using either a 4× or a 60× objective. Cholesterol esterification was visualized by culturing the cells with 1 μM NBD-cholesterol for 2 h following incubation with the indicated compounds. NBD-cholesterol esters were imaged by fluorescence microscopy using 485/20 nm excitation wavelengths. Images were captured using either a 20× or a 60× objective.
(§5) The cells were seeded in 96-well ibiTreat μ-Plates (Ibidi) in 100 μl at a density of 50,000 cells per well. […] 5 μl of NBD-cholesterol was added to each well to produce a final concentration of 1 μM. When NBD-cholesterol is esterified and localized to cytoplasmic lipid droplets, it produces bright fluorescent foci in the cell. The inhibition of ACAT activity prevents fluorescent focus formation by NBD-cholesterol (see, e.g., Lada, et al., 2004 J Lipid Res, 45, 378-86). After 1.5 h, 5 μl of Hoechst 33342 was added to each well to produce a final concentration of 3 μg/ml. After 30 min, the medium was replaced with fresh medium. NBD-cholesterol esterification was visualized by fluorescence microscopy using either 485/20 nm (NBD) or 387/11 nm (Hoechst) excitation wavelengths and images were captured using either a 60× oil objective or a 20× objective.

H295R cells [7] = assay: Visualization of NBD-cholesterol esterification; assay type: cell-based
Protocol: as §4, §5

H295R cells [8] = assay: Cholesterol efflux into serum-free medium with apoA1; assay type: cell-based; conditions: serum-free medium containing apoA-I, 4 h
Protocol: Cholesterol efflux was measured by replacing the culture medium with serum-free medium supplemented with 5 μg/ml apoA1 (Sigma) and the indicated compounds. After the indicated time, the serum-free medium was collected, and the cholesterol concentration was measured using the fluorometric enzyme-linked assay (Cayman Chemical).
After 48 h, the medium was removed and replaced with 50 μl serum-free medium supplemented with 5 μg/mL apoA1. After the indicated time, the supernatant containing the effluxed cholesterol, was transferred to a new 96-well plate. A cholesterol detection reagent (Cayman Chemical) consisting of cholesterol assay buffer, cholesterol assay detector (10-acetyl-3,7-dihydroxyphenoxazine [ADHP]), horseradish peroxidase, cholesterol oxidase, and cholesterol esterase was added, and the reactions were incubated for 30 min at 37 C. The fluorescence intensities were measured using ex. […] 590 nm. The cholesterol concentrations were calculated by interpolation between the values produced by cholesterol standards that were analyzed in parallel.

H295R cells [9] = assay: Cortisol secretion (indirect ELISA); assay type: cell-based
Protocol: Cortisol secretion was measured by replacing the culture medium with fresh medium containing the indicated compounds. The medium was collected at the indicated times. The cortisol concentration in the medium was measured using indirect ELISA (Arbor Assays).
After 48 h, the medium was removed and replaced with 50 μl of fresh medium. After the indicated incubation time, aliquots of the supernatant ranging from 0.5 to 10 μl were diluted in 50 μl of medium were used to measure the amount of cortisol secreted. Cortisol detection and quantification were performed by indirect ELISA according to the manufacturer's protocol (Arbor Assays #K003).

ABCA1 = assay: Transcript measurement by qPCR in H295R cells; assay type: cell-based; conditions: 4 h, hydrochloride
Protocol: (§6) mRNA was isolated (Qiagen), and was reverse transcribed using the Transcriptor First Strand cDNA synthesis kit (Roche). The relative amounts of cDNAs corresponding to the indicated transcripts were quantified using qPCR assays with specific primers (Table 2).
(§7) H295R cells were seeded in 6-well tissue culture plates (Corning #3506) at a density of 5 X105 per well. After 48 h, the compound(s) indicated were added, and the cells were cultured for the indicated time. The cells were harvested in 1.35 ml culture medium with trypsin. The cells were collected by centrifugation and lysed in 350 μl of RLT buffer (Qiagen) with β-mercaptoethanol. mRNA extraction and DNase treatment were performed according to the manufacturer's protocol (Qiagen). All RNA samples had 260/280 ratios greater than 1.5. The same amount of RNA ranging from 0.1 to 0.5 μg was used for reverse transcription using the Roche Transcriptor First Strand cDNA synthesis kit (Roche #04897030001) using the manufacturer's protocol. SYBR Green I-based real-time qPCR assays were performed using a Roche LightCycler480 instrument. The levels of transcripts in different samples were normalized by the levels of RPL9 transcripts.

ABCG1 = assay: Transcript measurement by qPCR in H295R cells; assay type: cell-based; conditions: 4 h, hydrochloride
Protocol: as §6, §7

CHOP = assay: Transcript measurement by qPCR in H295R cells; assay type: cell-based; conditions: 4 h
Protocol: as §6, §7

ACAT = conditions: cited from earlier work
adrenal cortex = conditions: in vivo; cited from earlier work
H295R cells [10] = assay: Cellular ATP level (CellTiter-Glo); conditions: for ATP level, compound alone: H295R cells, serum-containing medium;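 as to all read-outs here: ATP quantified by luminescence after lysing the cells in CellTiter-Glo reagent, with compound exposure at 37 °C under 5% CO2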
H295R cells [11] = assay: Cholesterol crystallization and extracellular cholesterol associated with cells; assay type: cell-based
Protocol: To quantify cholesterol crystallization, experiments were conducted that measured the total extracellular cholesterol that was associated with the cells. After culturing cells with the indicated compounds, the culture medium was removed. Medium lacking cholesterol was added to the cells, and the extracellular cholesterol that was released into the wash medium was collected after 30 seconds. To establish if the cholesterol that was released from the cells was exported by ABCA1, the wash step was performed in parallel using media with and without 50 μM glibenclamide, which inhibits ABCA1 activity. The total amount of cell-associated cholesterol that was released into the wash medium was measured using a fluorometric enzyme-linked assay (Cayman Chemical). Cholesterol esters were hydrolyzed using cholesterol esterase. Cholesterol was oxidized by cholesterol oxidase, producing hydrogen peroxide. The hydrogen peroxide was reacted with 10-acetyl-3,7-dihydroxyphenoxazine (ADHP) in the presence of horseradish peroxidase to produce resorufin. Resorufin fluorescence was measured using 555 nm exitation and 590 nm emission wavelengths in a SpectraMax M5 microplate reader (Molecular Devices).
The medium was removed and replaced with 50 μl serum-free medium supplemented with 5 μg/mL apo-AI (without or with 50 μM glyburide to detect ABCA1 transporter-dependent efflux) for either 30 sec or 1 h at 37 C in 5% CO2 atmosphere. After the indicated time, the supernatant, was transferred to a new 96-well plate and a fluorometric-base cholesterol detection assay cocktail was added.

H295R cells [12] = assay: Cell morphology by phase contrast microscopy; assay type: cell-based; conditions: 30 h
Protocol: FIG. 4E: […] The cells were cultured with DMSO vehicle (upper images) or with 40 μM ATR-101 (lower images) alone (left images), or in combination with 1.5 mM MβCD (middle images), or in combination with 40 μM cholesterol (right images). Cell morphology was visualized by phase contrast microscopy using a 10× objective. The images are representative of 5 fields under each set of culture conditions. The scale bars denote 100 μm.

[13] = H295R cells, serum-free, 50 μM each glibenclamide, benzamil, zosuquidar, 10 μM PD129337, 4 mM MβCD
[14] = H295R cells cultured with the compound together with ATR-101, 4 h
[15] = H295R cells cultured with the compound together with ATR-101, 24 h

## CC(C)c1cccc(C(C)C)c1NC(=O)NCC1(c2ccccc2)CCCC1.Cl [PD129337, N-(2,6-bis(1-methylethyl)phenyl)-N′-((1-(phenyl)cyclopentyl)methyl)urea hydrochloride]
BD140C cells [1]
  cholesterol level / accumulation (filipin III binding), compound alone: did not cause cholesterol accumulation
H295R cells [2]; H295R cells, up to 4 h
  cholesterol level / accumulation (filipin III binding), compound alone: did not cause cholesterol accumulation
H295R cells [2]; [13]
  cholesterol level with combinations of ABC transporter inhibitors: further increased the cholesterol level
BD140C cells [3]; 4 h
  ATP level, compound alone: did not cause ATP depletion
BD140C cells [3]; 24 h, hydrochloride
  ATP level, compound alone: did not reduce the ATP level; also recorded: no detectable effect
BD140C cells [4]; 4 h
  caspase 3/7 activity, compound alone: did not cause ATP depletion or caspase activation
BD140C cells [4]; 24 h, hydrochloride
  caspase 3/7 activity, compound alone: did not reduce the ATP level or increase the caspase 3/7 activity; also recorded: no detectable effect
H295R cells [5]; H295R cells, 4 h
  caspase 3/7 activity, compound alone: did not cause ATP depletion or caspase activation
H295R cells [5]; H295R cells, 24 h, hydrochloride
  caspase 3/7 activity, compound alone: did not reduce the ATP level or increase the caspase 3/7 activity; also recorded: no detectable effect
H295R cells [5]; [13]
  caspase 3/7 activity with combinations of ABC transporter inhibitors: did not enhance ATP depletion or caspase 3/7 activation
BD140C cells [6]
  NBD-cholesterol esterification and accumulation in lipid droplets: inhibited NBD-cholesterol esterification
H295R cells [7]; compound 2 h then 2 h with NBD-cholesterol, hydrochloride
  NBD-cholesterol esterification and accumulation in lipid droplets: inhibited cholesterol esterification more efficiently than ATR-101; also recorded: inhibited NBD-cholesterol accumulation more effectively than ATR-101; also recorded: eliminated both the intense foci and the diffuse fluorescence
H295R cells [8]
  cholesterol efflux, compound alone: no detectable effect on cholesterol efflux
H295R cells [9]; cortisol in medium, 4 h or time course
  cortisol secretion, compound alone: did not reduce, but rather increased, cortisol secretion
ABCA1
  ABCA1 transcript level: inhibited; also recorded: equivalent effects
ABCG1
  ABCG1 transcript level: inhibited; also recorded: equivalent effects
CHOP
  CHOP transcript level: activated
ACAT
  ACAT activity: inhibit ACAT activity
Adrenal cortex
  adrenalytic activity: only ATR-101 has adrenalytic activity
H295R cells [10]; 4 h
  ATP level, compound alone: did not cause ATP depletion
H295R cells [10]; 24 h, hydrochloride
  ATP level, compound alone: did not reduce the ATP level; also recorded: no detectable effect

## CC(C)CCC[C@@H](C)[C@H]1CC[C@H]2[C@@H]3CC=C4C[C@@H](O)CC[C@]4(C)[C@H]3CC[C@]12C [cholesterol]
H295R cells [2]; H295R cells cultured with the compound together with ATR-101, 4 h or 24 h
  effect on cholesterol accumulation caused by ATR-101: lower cholesterol levels than cells that were cultured with ATR-101 alone; also recorded: prevented intracellular cholesterol accumulation; also recorded: did not have a higher level of filipin III binding to the plasma membrane
H295R cells [2]; H295R cells, 24 h
  cholesterol level / accumulation (filipin III binding), compound alone: no detectable effect
H295R cells [2]; H295R cells, up to 4 h
  cholesterol level / accumulation (filipin III binding), compound alone: no detectable effect
H295R cells [5]; [14]
  effect on caspase 3/7 activation by ATR-101: did not affect caspase 3/7 activation
H295R cells [5]; [15]
  effect on caspase 3/7 activation by ATR-101: reduced caspase activation
H295R cells [5]; H295R cells, 4 h
  caspase 3/7 activity, compound alone: no detectable effect
H295R cells [5]; H295R cells, 24 h
  caspase 3/7 activity, compound alone: no detectable effect
H295R cells [7]; 40 μM exogenous cholesterol, 100 μM ATR-101
  effect of exogenous cholesterol on NBD-cholesterol esterification and on its inhibition by ATR-101: no significant difference
H295R cells [9]; 40 μM of the compound together with ATR-101, 4 h
  effect on the inhibition of cortisol secretion by ATR-101: neither compound prevented the inhibition of cortisol secretion
H295R cells [11]; 4 h, 100 μM ATR-101 or 40 μM cholesterol
  total extracellular cholesterol associated with cells: increased the total extracellular cholesterol
H295R cells [11]; compound in combination with ATR-101
  effect on cholesterol crystallization in cells cultured with ATR-101: produced more extracellular crystals; also recorded: increased the amount of extracellular cholesterol crystals
H295R cells [12]; 40 μM ATR-101 with 1.5 mM MβCD or 40 μM cholesterol
  effect on the changes in cell morphology caused by ATR-101: remained flat and adherent for at least 30 h; also recorded: prevented
H295R cells [12]; phase contrast
  cell morphology, compound alone: no detectable effect
H295R cells [10]; [14]
  effect on ATP depletion by ATR-101: partially restored the ATP level; also recorded: restored normal or nearly normal ATP levels; also recorded: reduced ATP depletion
H295R cells [10]; [15]
  effect on ATP depletion by ATR-101: partially restored the ATP level; also recorded: inhibits ATP depletion by ATR-101
H295R cells [10]; 4 h
  ATP level, compound alone: no detectable effect
H295R cells [10]; 24 h
  ATP level, compound alone: no detectable effect

From patent publication US10512667B2, “Compositions and methods for treating conditions related to adrenocortical activity and/or excessive steroid production” (The Regents of the University of Michigan, priority 2017, dated 2019)
